Measurements taken from ChEMBL document CHEMBL1201862, “PubChem BioAssay data set” (2004).
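Method: 48-hour compound exposure of cells in 96-well plates, five concentrations, linear interpolation of endpoints. The concentration for 50% growth inhibition is given as GI50.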 The source made the active and inactive calls. Cut-off read from the data, not from the text of the source: active = GI50 up to about 1.1 µM and inactive = higher.

Experiments:
Test in all cases: NCI anticancer screen, dose series, 48 h
[1] = tested on: XF498
[2] = tested on: LXFL 529
[3] = tested on: DMS-273
[4] = tested on: RXF 631
[5] = tested on: SNB-78
[6] = tested on: HOP-18
[7] = tested on: DLD-1
[8] = tested on: KM-20L2
[9] = tested on: M19-MEL

| SMILES | GI50 [1] | GI50 [2] | GI50 [3] | GI50 [4] | GI50 [5] | GI50 [6] | GI50 [7] | GI50 [8] | GI50 [9] |
| --- | --- | --- | --- | --- | --- | --- | --- | --- | --- |
| [O-][Cl+3]([O-])([O-])O.c1ccc(/N=c2\nc(N3CCOCC3)ss2)cc1 | 17.9 µM (inactive) | 12.2 µM (inactive) | 17.4 µM (inactive) | 17.4 µM (inactive) | 22 µM (inactive) | > 100 µM (inactive) | 14.6 µM (inactive) | 16.5 µM (inactive) | 18 µM (inactive) |
| CC(=O)OCc1c2ccccc2c(C)c2c1cc(F)c1ccccc12 | 16.6 µM (inactive) | 29.6 µM (inactive) | 10.4 µM (inactive) | 25.8 µM (inactive) | 14.3 µM (inactive) | 24.6 µM (inactive) | 14.8 µM (inactive) | 28.8 µM (inactive) |  |
| CC(=O)C(CN(C(C)C)C(C)C)C(c1ccccc1)c1c(O)c2ccccc2oc1=O (centres undefined) |  | > 100 µM (inactive) | > 100 µM (inactive) | > 100 µM (inactive) | 97.1 µM (inactive) | > 100 µM (inactive) | > 100 µM (inactive) | > 100 µM (inactive) | > 100 µM (inactive) |
| CCOC(=O)CCC(=O)C1c2cccc(O)c2C(=O)c2c(O)cc(C)cc21 (centres undefined) | 0.211 µM (active) | 0.643 µM (active) | 0.785 µM (active) | 0.771 µM (active) | 0.542 µM (active) | 0.515 µM (active) | 1.21 µM (inactive) | 1.83 µM (inactive) | 0.637 µM (active) |
| COc1ccc(Cn2c(C)nc3c2C(=O)c2ccccc2C3=O)cc1 | 11.7 µM (inactive) | 4.31 µM (inactive) | 3.32 µM (inactive) |  | 16.1 µM (inactive) |  | 4.67 µM (inactive) | 11.6 µM (inactive) | 7.91 µM (inactive) |
| Cc1ccc(S(=O)OC23CC4CC(CC(C4)C2)C3)cc1 (centres undefined) | > 100 µM (inactive) | > 100 µM (inactive) | > 100 µM (inactive) | 72.8 µM (inactive) | > 100 µM (inactive) | > 100 µM (inactive) | > 100 µM (inactive) | > 100 µM (inactive) | > 100 µM (inactive) |
| COC(=O)C(=O)C(CC(=O)Nc1cc(Cl)ccc1Cl)C(=O)OC (centres undefined) |  | > 100 µM (inactive) | > 100 µM (inactive) |  | > 100 µM (inactive) | > 100 µM (inactive) |  | > 100 µM (inactive) |  |
| Cc1cccc2c1c1ccc3c(c1n2C)C(=O)C=CC3=O |  | 2.01 µM (inactive) | 3.11 µM (inactive) | 6.79 µM (inactive) | 16.2 µM (inactive) | 10 µM (inactive) | 2.28 µM (inactive) | 16.2 µM (inactive) | 5.33 µM (inactive) |
| O=S1(=O)N2CN3CN(C2)CN1C3 | > 100 µM (inactive) | 18.2 µM (inactive) | 27 µM (inactive) |  | 28.1 µM (inactive) | > 50.1 µM (inactive) | 33.4 µM (inactive) | > 91.8 µM (inactive) | 62.1 µM (inactive) |
| C=C(c1ccccc1)[C@@]1(O)CCCC[C@H]1NC(c1ccccc1)c1ccccc1 |  | 11.1 µM (inactive) | 13.1 µM (inactive) |  | 19.7 µM (inactive) | 19.9 µM (inactive) | 14.6 µM (inactive) | 13.8 µM (inactive) | 15 µM (inactive) |
| CC(CC[C@@H](C)C1CCC2[C@@H]3CC(O)C4CC(O)[C@@H](O)C[C@]4(C)C3CC[C@@]21C)C(C)(C)C (some centres undefined) | > 100 µM (inactive) | > 100 µM (inactive) | > 100 µM (inactive) |  | > 100 µM (inactive) | > 100 µM (inactive) | > 100 µM (inactive) | > 100 µM (inactive) | > 100 µM (inactive) |
| COc1ccc(C2=C(Cl)c3cc(OC)c(OC)cc3C2)cc1OC | > 100 µM (inactive) | > 100 µM (inactive) | > 100 µM (inactive) |  | > 100 µM (inactive) | > 100 µM (inactive) | > 100 µM (inactive) | > 100 µM (inactive) | > 100 µM (inactive) |
| CC(=O)CC(=O)Nc1ccc(OS(N)(=O)=O)cc1 | > 100 µM (inactive) | > 100 µM (inactive) | > 100 µM (inactive) | > 100 µM (inactive) | > 100 µM (inactive) | > 100 µM (inactive) | > 100 µM (inactive) | > 100 µM (inactive) | > 100 µM (inactive) |
| Cc1ccc(/C=N\NC2c3cc(Cl)ccc3Nc3nc(O)nc(C)c32)cc1 (centres undefined) | > 100 µM (inactive) | > 100 µM (inactive) | 91.4 µM (inactive) |  | > 100 µM (inactive) |  | > 100 µM (inactive) | > 100 µM (inactive) | > 100 µM (inactive) |
| COc1cc(/C=C2\[C@@H]3NC(Cc4c(OC)c(C)c(OC)c(OC)c43)C(=O)N2Cc2ccccc2)c(OC)c(C)c1OC |  | 37.5 µM (inactive) | 27.9 µM (inactive) | 53.7 µM (inactive) |  | 43.8 µM (inactive) | 45.4 µM (inactive) | 37.8 µM (inactive) | 28.5 µM (inactive) |
| COc1c(CC=C(C)C)c(O)c(C(CC(C)C)c2c(O)c(CC=C(C)C)c(O)c(C(C)=O)c2O)c(O)c1C(C)=O (centres undefined) | 0.596 µM (active) |  | 0.333 µM (active) | 0.425 µM (active) | 1.7 µM (inactive) | 0.551 µM (active) | 0.38 µM (active) |  | 1.43 µM (inactive) |
| COc1ccc(CCNCc2cccc(OC)c2OC)cc1OC | > 100 µM (inactive) | > 100 µM (inactive) | > 100 µM (inactive) | > 100 µM (inactive) | > 100 µM (inactive) |  | > 100 µM (inactive) | > 100 µM (inactive) | > 100 µM (inactive) |
| COC(=O)C1=C(c2cc(OC)c(OC)c(OC)c2)OC(c2cc(OC)c(OC)c(OC)c2)C1 (centres undefined) | 24.4 µM (inactive) | 22.4 µM (inactive) | 22.5 µM (inactive) |  | 51.8 µM (inactive) | 19.5 µM (inactive) | 21.9 µM (inactive) | 22.5 µM (inactive) | 26.7 µM (inactive) |
| Cc1ccc(N2C(=O)/C(=C3\Sc4c(nc(C)n(C)c4=O)N3c3ccccc3)SC2=S)cc1 | > 100 µM (inactive) | 68.7 µM (inactive) | 25.2 µM (inactive) |  | 40.8 µM (inactive) |  |  | > 100 µM (inactive) | > 100 µM (inactive) |
| COC(=O)C1=CC2C=CC(C1C(=O)OC)C1C(C(=O)OC)=C(C(=O)OC)C(C(=O)OC)=C(C(=O)OC)C21OC (centres undefined) |  | > 100 µM (inactive) | > 100 µM (inactive) | > 100 µM (inactive) | > 100 µM (inactive) | > 100 µM (inactive) | > 100 µM (inactive) | > 100 µM (inactive) | > 100 µM (inactive) |
| CCOC(=O)COc1ccccc1/C=C1\CCC(CN(C)C)C1=O (centres undefined) |  | 2.45 µM (inactive) | 2.91 µM (inactive) | 17.9 µM (inactive) | 21.2 µM (inactive) | 23.2 µM (inactive) | 3.99 µM (inactive) | 11.6 µM (inactive) | 3.18 µM (inactive) |
| Nc1ccc(C(=O)NN2C(=O)C(Cl)C2c2ccc(O)cc2)cc1 (centres undefined) | 14.7 µM (inactive) | 17.8 µM (inactive) | 17.2 µM (inactive) |  | 11.9 µM (inactive) |  | 18.1 µM (inactive) | 19.9 µM (inactive) | 20.1 µM (inactive) |
| C[C@]12CC[C@H](O)CC1=CC[C@@H]1C2CC[C@]2(C)C(=O)NC(=O)CC12 (some centres undefined) | > 100 µM (inactive) | 74.3 µM (inactive) | 56.9 µM (inactive) | 76.7 µM (inactive) | > 100 µM (inactive) | > 100 µM (inactive) | 44.6 µM (inactive) | > 100 µM (inactive) | > 100 µM (inactive) |
| CC(=O)N1CCN(c2ccc(OCC3COC(Cn4ccnc4)(c4ccc(Cl)cc4Cl)O3)cc2)CC1 (centres undefined) [KETOCONAZOLE] |  | 26.4 µM (inactive) | 20.5 µM (inactive) |  |  | > 100 µM (inactive) | 33 µM (inactive) | 32.7 µM (inactive) | 21.4 µM (inactive) |
